≈ marks a conversion by molar mass, not a printed value. Where two headings read alike, the source gives them in different places. *1 amine or outer side, *2 acyl side, *3 side chain or, on linkers, in order; H or OH if unused. Where a SMILES comes first, the peptide text is derived from it. [ ]: non-standard residue; d: D form. GlyΨ(Thz) = O=C(c1csc(CN[*:1])n1)[*:2]; X1 = O=C(c1ccc(CN[*:1])[nH]1)[*:2]; X3 = O=C(c1coc(CN[*:1])n1)[*:2]
Legend:
Human topoisomerase IIα [1] = biological target: T1, Human topoisomerase IIα (Homo sapiens, UniProt P11388); experiment: Human Topoisomerase IIα decatenation assay; assay type: biochemical; design: purchased TopoGEN Inc. (Port Orange, Fla., USA)
T1 sequence (P11388 whole entry): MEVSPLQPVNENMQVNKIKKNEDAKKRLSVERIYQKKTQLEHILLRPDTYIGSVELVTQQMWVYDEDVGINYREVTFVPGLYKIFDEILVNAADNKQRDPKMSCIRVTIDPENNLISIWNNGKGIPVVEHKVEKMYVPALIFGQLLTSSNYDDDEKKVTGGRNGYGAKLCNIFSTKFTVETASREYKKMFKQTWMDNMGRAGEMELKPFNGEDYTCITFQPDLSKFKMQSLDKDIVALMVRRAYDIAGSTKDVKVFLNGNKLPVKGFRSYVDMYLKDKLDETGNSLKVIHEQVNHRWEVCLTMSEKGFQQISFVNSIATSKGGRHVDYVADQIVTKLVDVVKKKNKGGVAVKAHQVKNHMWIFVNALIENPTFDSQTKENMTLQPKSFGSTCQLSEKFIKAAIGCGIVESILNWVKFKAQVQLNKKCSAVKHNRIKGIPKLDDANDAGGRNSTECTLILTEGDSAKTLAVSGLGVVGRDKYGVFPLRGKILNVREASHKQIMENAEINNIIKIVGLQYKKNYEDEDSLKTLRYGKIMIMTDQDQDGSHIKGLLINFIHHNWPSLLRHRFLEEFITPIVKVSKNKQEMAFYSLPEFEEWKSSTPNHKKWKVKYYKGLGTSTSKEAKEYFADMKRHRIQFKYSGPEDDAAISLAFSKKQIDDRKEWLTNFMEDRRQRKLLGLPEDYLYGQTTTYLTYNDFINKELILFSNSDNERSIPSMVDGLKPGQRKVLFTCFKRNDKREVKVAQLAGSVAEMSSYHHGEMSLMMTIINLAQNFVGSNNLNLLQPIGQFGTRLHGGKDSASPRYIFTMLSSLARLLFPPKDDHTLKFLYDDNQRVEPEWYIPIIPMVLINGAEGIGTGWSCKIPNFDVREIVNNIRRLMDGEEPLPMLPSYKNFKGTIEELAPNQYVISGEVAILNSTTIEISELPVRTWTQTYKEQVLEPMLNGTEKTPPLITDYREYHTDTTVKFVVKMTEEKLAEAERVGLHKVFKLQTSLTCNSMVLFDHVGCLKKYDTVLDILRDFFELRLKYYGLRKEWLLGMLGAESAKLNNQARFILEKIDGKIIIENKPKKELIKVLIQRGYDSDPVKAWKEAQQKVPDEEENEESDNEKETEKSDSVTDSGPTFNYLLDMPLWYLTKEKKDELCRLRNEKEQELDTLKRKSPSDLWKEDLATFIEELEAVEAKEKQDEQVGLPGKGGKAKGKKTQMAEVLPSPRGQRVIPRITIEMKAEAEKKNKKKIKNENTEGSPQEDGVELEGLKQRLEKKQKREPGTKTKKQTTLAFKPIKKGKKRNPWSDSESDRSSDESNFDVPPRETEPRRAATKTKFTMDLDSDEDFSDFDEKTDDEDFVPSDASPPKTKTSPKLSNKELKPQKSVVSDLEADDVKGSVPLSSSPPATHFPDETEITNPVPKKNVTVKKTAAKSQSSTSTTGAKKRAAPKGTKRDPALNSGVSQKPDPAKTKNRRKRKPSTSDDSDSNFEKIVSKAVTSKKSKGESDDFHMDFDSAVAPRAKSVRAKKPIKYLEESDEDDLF
Protocol: (§1) Human Topoisomerase IIα-mediated relaxation assays and decatenation assays were performed as per the manufacturer's instructions in a total of 20 μL. Relaxation assays contained Topoisomerase IIα (4.3 nM), 50 mM Tris.HCl pH 8,120 mM KCl, 10 mM MgCl2, 0.5 mM DTT, 0.5 mM ATP, 4.6 nM of supercoiled pBR322 DNA, and inhibitor where appropriate. Decatenation assays substituted the supercoiled DNA with 200 ng catenated kinetoplast DNA.
(§2) All in vitro reactions were incubated at 37° C. for 30 minutes. The DMSO concentration in each reaction was kept constant at 3.33%. Reactions were quenched with the addition of an equal volume of phenol/chloroform/isoamyl alcohol (25:24:1) and one tenth volume of loading buffer containing 40% sucrose, 100 mM Tris.HCl pH 7.5, 100 mM EDTA, 2 mg/mL bromophenol blue. The proteins were precipitated by vortexing, followed by centrifugation for 5 minutes at 16 000 g. The aqueous phase was loaded onto 1% agarose gels in Tris-acetate and were electrophoresed at 60 V for three hours in Tris-acetate buffer. The gels were stained in 1 μg/mL ethidium bromide. The gels were visualised using UV light and were documented and analysed using Syngene software.

Human topoisomerase I = biological target: T2, Human topoisomerase I (Homo sapiens, UniProt P11387); experiment: Human topoisomerase I-mediated relaxation assay; assay type: biochemical
T2 construct: purchased TopoGEN Inc. (Port Orange, Fla., USA)
T2 sequence (P11387 1-765): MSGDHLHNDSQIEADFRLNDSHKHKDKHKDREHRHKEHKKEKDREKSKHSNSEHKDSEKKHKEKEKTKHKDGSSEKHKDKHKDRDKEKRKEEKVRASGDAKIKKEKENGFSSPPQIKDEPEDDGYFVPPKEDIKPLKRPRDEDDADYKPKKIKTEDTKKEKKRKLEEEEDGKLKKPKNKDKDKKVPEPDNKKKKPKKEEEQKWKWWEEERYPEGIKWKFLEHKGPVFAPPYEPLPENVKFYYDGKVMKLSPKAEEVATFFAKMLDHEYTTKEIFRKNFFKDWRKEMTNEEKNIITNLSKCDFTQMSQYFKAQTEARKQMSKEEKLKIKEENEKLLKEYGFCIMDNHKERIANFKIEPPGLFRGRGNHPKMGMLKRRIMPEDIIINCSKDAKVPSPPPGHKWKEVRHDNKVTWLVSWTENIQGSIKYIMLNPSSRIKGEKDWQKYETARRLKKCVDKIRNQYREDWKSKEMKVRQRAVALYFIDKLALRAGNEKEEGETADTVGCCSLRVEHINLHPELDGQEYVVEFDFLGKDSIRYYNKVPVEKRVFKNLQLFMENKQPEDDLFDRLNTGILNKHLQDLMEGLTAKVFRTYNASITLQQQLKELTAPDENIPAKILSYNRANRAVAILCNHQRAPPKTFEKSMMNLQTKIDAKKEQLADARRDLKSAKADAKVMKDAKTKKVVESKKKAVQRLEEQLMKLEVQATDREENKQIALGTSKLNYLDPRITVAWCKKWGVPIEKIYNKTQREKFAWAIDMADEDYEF
Protocol: Human topoisomerase I-mediated relaxation assays were performed as per the manufacturer's instructions. Topoisomerase I (2 nM) was added to reactions containing 10 mM of Tris.HCl, pH 7.9, 150 mM NaCl, 100 μM spermidine.HCl, 5% glycerol, 0.1% BSA, 4.6 nM of […] pBR322 DNA, and inhibitor where appropriate.
as §2

E. coli Topoisomerase IV [2] = biological target: T3, E. coli Topoisomerase IV (Escherichia coli, UniProt P0AFI2+P20083); experiment: biochemical; assay type: biochemical; design: purchased John Innes Enterprises (Norwich, UK)
T3 sequence (P20083 whole entry): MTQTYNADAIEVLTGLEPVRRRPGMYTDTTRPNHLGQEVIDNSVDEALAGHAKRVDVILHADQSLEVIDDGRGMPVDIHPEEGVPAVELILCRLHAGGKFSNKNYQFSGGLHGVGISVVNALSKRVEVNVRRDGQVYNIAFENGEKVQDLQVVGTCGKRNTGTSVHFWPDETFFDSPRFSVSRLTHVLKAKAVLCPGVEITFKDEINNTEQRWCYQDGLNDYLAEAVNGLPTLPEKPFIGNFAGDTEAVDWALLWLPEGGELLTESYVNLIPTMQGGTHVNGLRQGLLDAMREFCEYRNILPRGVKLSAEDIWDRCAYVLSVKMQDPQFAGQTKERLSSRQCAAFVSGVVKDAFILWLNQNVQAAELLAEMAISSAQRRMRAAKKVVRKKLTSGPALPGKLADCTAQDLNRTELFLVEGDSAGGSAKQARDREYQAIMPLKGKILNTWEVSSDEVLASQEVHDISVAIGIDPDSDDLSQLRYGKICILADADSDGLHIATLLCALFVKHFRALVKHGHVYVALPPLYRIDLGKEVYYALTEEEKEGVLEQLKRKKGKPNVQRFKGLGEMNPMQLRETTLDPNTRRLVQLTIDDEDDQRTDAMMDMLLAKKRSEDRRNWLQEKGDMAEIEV
T3 sequence (P0AFI2 whole entry): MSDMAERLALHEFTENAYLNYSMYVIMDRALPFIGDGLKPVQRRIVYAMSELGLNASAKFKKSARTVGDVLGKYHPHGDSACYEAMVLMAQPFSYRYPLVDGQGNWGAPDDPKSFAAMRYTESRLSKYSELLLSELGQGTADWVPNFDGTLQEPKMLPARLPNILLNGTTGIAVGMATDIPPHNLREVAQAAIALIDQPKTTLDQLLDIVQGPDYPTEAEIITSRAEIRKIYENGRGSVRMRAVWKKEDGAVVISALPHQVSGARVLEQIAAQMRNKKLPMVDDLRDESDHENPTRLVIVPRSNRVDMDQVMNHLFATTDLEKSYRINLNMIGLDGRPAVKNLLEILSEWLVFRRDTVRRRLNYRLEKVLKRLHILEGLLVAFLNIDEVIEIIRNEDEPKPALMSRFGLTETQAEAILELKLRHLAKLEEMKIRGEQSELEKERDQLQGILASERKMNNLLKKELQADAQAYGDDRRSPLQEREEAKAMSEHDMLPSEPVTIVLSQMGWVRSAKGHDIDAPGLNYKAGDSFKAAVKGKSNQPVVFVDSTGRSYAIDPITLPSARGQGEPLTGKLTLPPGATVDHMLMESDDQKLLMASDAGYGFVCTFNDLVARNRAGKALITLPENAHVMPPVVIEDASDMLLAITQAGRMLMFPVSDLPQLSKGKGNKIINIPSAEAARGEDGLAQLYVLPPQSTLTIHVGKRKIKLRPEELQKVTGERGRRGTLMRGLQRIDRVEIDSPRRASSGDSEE
Protocol: (§5) Topoisomerase IV-mediated relaxation assays and decatenation assays were performed as previously described (see Peng and Marians, 1993). […] Decatenation assays contained topoisomerase IV (4 nM), 40 mM Tris HCl pH 7.5 at 30° C., 6 mM MgCl2, 10 mM DTT, 1 mM spermidine.HCl, 100 mM potassium glutamate, 0.5 mM ATP, 0.5 mg/mL BSA, 200 ng of kinetoplast DNA, and inhibitor where appropriate.

Human topoisomerase IIα [3] = biological target: T1, Human topoisomerase IIα; experiment: Human Topoisomerase IIα-mediated relaxation assay; assay type: biochemical; design: purchased TopoGEN Inc. (Port Orange, Fla., USA)
Protocol: as §1, §2

DNA gyrase [4] = biological target: T4, DNA gyrase (Escherichia coli, UniProt P0AES4+P0AES6); experiment: biochemical; design: species or system E. coli; settings: for IC50 SC gyrase: Table 5-C
[5] = biological target: DNA gyrase W751R mutant A2B2 (Escherichia coli, UniProt P0AES4+P0AES6, W751R); assay type: biochemical, E. coli
Protocol: ATP hydrolysis by DNA gyrase was linked to the oxidation of NADH using a pyruvate Kinase (PK)/lactate dehydrogenase (LDH) coupled enzyme assay and measured at 340 nm on a Spectramax Plus Microplate. […] DMSO was kept constant at 2%.
DNA-dependent ATPase reactions were tested with the wild type enzyme A2B2 and the W751R mutant enzyme.

[6] = biological target: DNA gyrase MG1655 wild type A2B2 (Escherichia coli, UniProt P0AES4+P0AES6); experiment: biochemical; design: species or system E. coli; settings: for ATPase % inhibition at saturation: Table 4
Protocol: ATP hydrolysis by DNA gyrase was linked to the oxidation of NADH using a pyruvate Kinase (PK)/lactate dehydrogenase (LDH) coupled enzyme assay and measured at 340 nm on a Spectramax Plus Microplate. […] Each 100 μL reaction contained 50 mM Tris.HCl (pH 7.5), 24 mM KCl, 5 mM MgCl2, 6.5% (w/w) glycerol, 4 mM dithiotreitol, 0.4 mM NADH, 0.8 mM phosphorenol-pyruvate, 1% (w/w) PK/LDH mixture (Sigma), 51 nM-153 nM gyrase enzyme and the drug tested at varying concentrations. DMSO was kept constant at 2%. The reactions were measured in the presence or absence of linear DNA pBR322 at fixed concentration of 8.4 nM. Reactions were initiated by the addition of 10 mM Mg.ATP and measured at 25° C. over 1.5 hours.
DNA-dependent ATPase reactions were tested with the wild type enzyme A2B2 and the W751R mutant enzyme. In these DNA-dependent ATPase assays, the concentration of wild type A2B2 is 51 nM, the concentration of W751R mutant enzyme is 106 nM.
Experimental data were fitted and treated with the following equation:
where L represents the inhibitor concentration, v represents the rate of the ATPase reaction, and v0 represents the rate in absence of inhibitor. The IC50 is deduced from the equation 2:

[7] = system: A. thaliana ecotype Columbia seeds; experiment: Seed germination of A. thaliana; assay type: in vivo, Arabidopsis thaliana; settings: 36 hours; 100 μM Peptide 1; 5 μM CFX
Protocol: The microcin derivatives were tested for efficacy in planta against Arabidopsis thaliana ecotype Columbia according to known methods (see Wall et al., 2004).

[8] = biological target: Wheatgerm topoisomerase I (Triticum aestivum, UniProt A0A3B6RK19); experiment: Wheatgerm topoisomerase I-mediated relaxation assay; assay type: biochemical
Wheatgerm topoisomerase I, sequence (A0A3B6RK19 entry or part of it): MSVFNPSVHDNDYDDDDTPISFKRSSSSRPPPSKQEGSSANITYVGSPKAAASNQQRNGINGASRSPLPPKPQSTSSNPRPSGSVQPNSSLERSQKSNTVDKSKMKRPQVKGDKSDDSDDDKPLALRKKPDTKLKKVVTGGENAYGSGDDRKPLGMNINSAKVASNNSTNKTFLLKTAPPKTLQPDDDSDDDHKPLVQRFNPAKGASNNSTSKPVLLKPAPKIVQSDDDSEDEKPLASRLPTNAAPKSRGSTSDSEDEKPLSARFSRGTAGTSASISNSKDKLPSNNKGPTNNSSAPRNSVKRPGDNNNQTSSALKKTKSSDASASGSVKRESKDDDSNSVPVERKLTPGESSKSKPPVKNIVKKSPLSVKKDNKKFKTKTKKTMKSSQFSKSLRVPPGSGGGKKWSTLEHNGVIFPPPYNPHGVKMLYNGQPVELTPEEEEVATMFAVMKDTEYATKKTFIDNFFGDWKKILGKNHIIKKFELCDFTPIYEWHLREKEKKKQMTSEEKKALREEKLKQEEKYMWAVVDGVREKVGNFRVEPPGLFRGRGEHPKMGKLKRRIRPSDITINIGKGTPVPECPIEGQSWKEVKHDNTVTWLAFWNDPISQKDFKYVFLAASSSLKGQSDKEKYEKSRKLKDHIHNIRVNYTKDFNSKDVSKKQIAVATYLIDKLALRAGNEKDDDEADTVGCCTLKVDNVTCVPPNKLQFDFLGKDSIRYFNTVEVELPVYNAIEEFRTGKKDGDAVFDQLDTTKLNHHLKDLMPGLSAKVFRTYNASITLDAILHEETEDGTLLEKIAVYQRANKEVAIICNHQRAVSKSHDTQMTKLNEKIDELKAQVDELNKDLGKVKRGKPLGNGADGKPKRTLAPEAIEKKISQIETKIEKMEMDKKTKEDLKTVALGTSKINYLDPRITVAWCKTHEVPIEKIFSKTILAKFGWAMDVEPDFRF
Protocol: Wheatgerm topoisomerase I-mediated relaxation assays were performed as per the manufacturer's instructions. Topoisomerase I (2 nM) was added to reactions containing 50 mM Tris. HCl pH 7.5, 50 mM NaCl, 0.1 mM EDTA, 1 mM DTT, 20% glycerol, 4.6 nM of […] pBR322 DNA, and inhibitor where appropriate.
as §2

DNA gyrase [9] = biological target: T4, DNA gyrase; assay type: biochemical, E. coli; settings: for Cleavage (IC50 μM): Table 4; for IC50 cleavage: Table 5-C
Protocol: GyrA and GyrB were added to solutions containing 35 mM Tris.HCl (pH, 7.5), 24 mM KCl, 4 mM MgCl2, 1.8 mM spermidine, 6.5% glycerol, 0.36 mg/mL BSA, 9 μg/mL tRNA, 5 mM DTT, 2 mM ATP and 10 nM relaxed pBR322 DNA. […] The reactions were incubated at 25° C., and at each time point 30-μl aliquots were quenched with 1 μL of 10% SDS and 2 μL of 2 mg/ml proteinase K. Quenched aliquots were kept on ice until the experiment was completed, at which time they were incubated at 37° C. for half an hour. An equal volume of chloroform/isoamyl alcohol (24:1) and a half volume of loading buffer STEB (40% sucrose/100 mM Tris HCl, pH 7.5/1 mM EDTA/2 mg/ml bromophenol blue) were added, and the mixtures then were vortexed and centrifuged for 1 min at 13,000 rpm. The aqueous phase was loaded onto 1% agarose, TAE (40 mM Tris-acetate, 1 mM EDTA) gels that contained 1 μg/ml ethidium bromide and were run at either 30 V overnight in TAE containing 1 μg/ml ethidium bromide (in the cold room) or 70 V for 2.5 hours in TAE containing 1 μg/ml ethidium bromide.

[10] = biological target: DNA gyrase (MG 1655 A2B2) (Escherichia coli, UniProt P0AES4+P0AES6); experiment: biochemical; design: species or system E. coli
Protocol: (§6) GyrA and GyrB were added to a solution containing 35 mM Tris.HCl (pH, 7.5), 24 mM KCl, 4 mM MgCl2, 1.8 mM spermidine, 6.5% glycerol, 0.36 mg/mL BSA, 9 μg/mL tRNA, 5 mM DTT, 2 mM ATP and 24 nM relaxed pBR322 DNA. […] The reactions were incubated at 25° C., and at each time point 30-μl aliquots were quenched with 1 μL of 10% SDS. An equal volume of chloroform/isoamyl alcohol (24:1) and a half volume of loading buffer STEB (40% sucrose/100 mM Tris.HCl, pH 7.5/100 mM EDTA/2 mg/ml bromophenol blue) were added, and the mixtures then were vortexed and centrifuged for 1 min at 13,000 rpm. The aqueous phase was loaded onto 1% agarose, TAE (40 mM Tris-acetate, 1 mM EDTA) gels and were run at either 30 V overnight in TAE (in the cold room) or 70 V for 2.5 hours. The gels were stained for about 20 min in TAE containing 1 μg/ml ethidium bromide followed by destaining in multiple washes of TAE.

DNA gyrase A2B2 = DNA gyrase A2B2 (Escherichia coli, UniProt P0AES4+P0AES6); experiment: biochemical; assay type: biochemical, E. coli
Protocol: Relaxation assays were performed in a manner analogous to that described by Pierrat et al., 2005. Briefly, relaxation assays were performed as for the supercoiling assay but with some modifications: ATP and spermidine were omitted. Gyr A and Gyr B were added to a solutions containing 35 mM of Tris.HCl (pH=7.5), 24 mM of KCl, 4 mM of MgCl2, 1.8 mg/mL of spermidine, 6.5% of glycerol, 0.36 mg/mL of BSA, 9 μg/mL of tRNA, 5 mM of DTT, 2 mM of ATP and 24 nM of relaxed pBR322 DNA. […] The amount of DMSO was kept constant at 3.33%. The reactions were incubated at 25° C., and at each time point 30 μL aliquots were quenched with the addition of an equal volume of chloroform/isoamyl alcohol (24:1) and a half volume of loading buffer STEB (40% sucrose/100 mM Tris HCl, pH 7.5/100 mM EDTA/2 mg/mL bromophenol blue). The mixtures then were vortexed and centrifuged for 1 minute at 13,000 rpm. The aqueous phase was loaded onto 1% agarose, TAE (40 mM Tris-acetate, 1 mM EDTA) gels and were run at either 30 V overnight in TAE (in the cold room) or 70 V for 2.5 hours in TAE. The gels were stained for about 20 minutes in TAE containing 1 μg/mL ethidium bromide followed by destaining in multiple washes of TAE. The data were analysed using Syngel software.

DNA gyrase W751R A2B2 = DNA gyrase W751R A2B2 (Escherichia coli, UniProt P0AES4+P0AES6, W751R); experiment: Supercoiling in vitro assay, W751R mutant enzyme; assay type: biochemical, E. coli
Protocol: as §6

E. coli Topoisomerase IV [11] = biological target: T3, E. coli Topoisomerase IV; experiment: biochemical; design: purchased John Innes Enterprises (Norwich, UK)
Protocol: as §5

HeLa cells = experiment: cells; assay type: cell-based, human; settings: MTT, 24 hours; read-out: In vivo HeLa Cells (approximate IC50)
Protocol: (§3) Human cell cultures were initiated from frozen cell stocks (the gift of Dr J. Gavrilovic, UEA). The HT-29 line is derived from a colorectal adenocarcinoma while HeLa cells are derived from a cervical epithelial adenocarcinoma (see FIG. 35). Both human cell lines form adherent cultures and were maintained at 37° C. in T25 culture vessels as 10 mL cultures in CO2 Independent Media containing 10% foetal bovine serum (EU approved), 4 mM L-glutamine, penicillin/streptomycin (Invitrogen). A subcultivation ratio of 1:3 and 1:6 were maintained for HT-29 and HeLa lines respectively. Media was renewed every three days.
(§4) The assay to determine the effects of the heterocyclic compounds on mammalian cells is based on the cleavage of the yellow tetrazolium salt MTT to purple formazoan crystals by metabolically active cells (Roche). After incubation with MTT and solubilization, the resulting coloured solution is quantified using a scanning spectrophotometer. Each of the cell lines was trypsinised and resuspended in fresh media prior to transfer to sterile flat-bottomed microtitre plates (200 μL per well) and allowed to recover for 16 hours. Five thousand HT-29 or 7500 HeLa cells per 100 μL culture medium were incubated in the presence of the drugs in various concentrations (totalling 10 μL) for 24 hours. Cell viability was then determined by addition of MTT reagent (20 μL) in each well, as per manufacturer's instructions and incubated for a further 4 hours. Solubilization solution (100 μL) was added per well and the plates incubated overnight at 37° C. The plates were read in a spectrophotometer (scanning from 500-650 nm, signal peak at 570 nm). A representative result is illustrated in FIG. 36.

HT-29 cells = experiment: cells; assay type: cell-based, human; settings: MTT, 24 hours; read-out: In vivo HT29 Cells (approximate IC50)
Protocol: as §3, §4

[12] = Topo IIα Human, R (relaxation reaction) IC50
[13] = Supercoiling (IC50 μM) MG 1655 A2B2, Table 4

Protocol for pBR322 DNA: Other compounds like Ethidium Bromide (EtBr), MccB17 and Ciprofloxacin (CFX) were also tested as controls. In this assay, negatively supercoiled pBR322 was relaxed by topoisomerase I in the presence or the absence of the putative DNA intercalative compound. […] Sample reactions were performed in the same buffer used for the DNA relaxation of DNA gyrase (Pierrat & Maxwell, 2003). […] In one set of reactions, negatively supercoiled pBR322 DNA was relaxed at 37° C. for 30 minutes, then intercalative agent was added, i.e., the substrate of the assay was relaxed. In a second set of reactions, the intercalative agent was incubated with the DNA in reaction buffer at 37° C. for 15 minutes prior to the addition of topoisomerase I, i.e., the substrate of the assay was negatively supercoiled. […] Samples were incubated for 60 minutes at 37° C., followed by treatment with 1% SDS and 0.3 mg/mL proteinase K at 37° C. for 30 minutes. Reactions were terminated and samples were prepared for agarose gel electrophoresis as previously described (Heddle et al., 2001). Each reaction product was separated on 1% agarose gel, followed by staining in 1 μg/mL ethidium bromide.

| SMILES | Topo IIα Human, D (decatenation reaction) IC50 (Human topoisomerase IIα [1]) | Topo I Human IC50 (Human topoisomerase I) | Topo IV, D (decatenation reaction) IC50 (E. coli Topoisomerase IV [2]) | Cleavage (IC50 μM) (DNA gyrase [9]) | IC50 (Human topoisomerase IIα [3]; [12]) | IC50 (DNA gyrase A2B2) | IC50 (E. coli Topoisomerase IV [11]) | IC50 (HeLa cells) | IC50 (HT-29 cells) | IC50 (Human topoisomerase IIα [1]) | IC50 (Human topoisomerase I) | IC50 (DNA gyrase [4]) | also measured |
| --- | --- | --- | --- | --- | --- | --- | --- | --- | --- | --- | --- | --- | --- |
| CC(C)(C)OC(=O)NCc1nc(C(=O)O)cs1 [#5] | exquisitely sensitive | only inhibited human topoisomerase I | exquisitely sensitive | – | – | – | – | – | – | – | – | – | IC50 (Human topoisomerase IIα [3]; read-out: Topo IIα Human, R (relaxation reaction) IC50): < 20 µM |
| CC(C)(C)OC(=O)NCc1nc(-c2nc(C(=O)O)cs2)co1 [#7] | – | – | – | – | – | – | – | – | – | – | – | – | IC50 SC gyrase (DNA gyrase [4]): Inactive |
| CC(C)(C)OC(=O)NCc1nc(-c2nc(C(=O)O)co2)cs1 [#8] | – | – | – | – | – | – | – | – | – | – | – | – | IC50 SC gyrase (DNA gyrase [4]): Inactive |
| O=C(O)c1cn(C2CC2)c2cc(N3CCNCC3)c(F)cc2c1=O [Ciprofloxacin, reference compound] | – | – | – | – | – | – | – | – | – | – | – | – | inhibition of DNA-independent ATPase of W751R mutant enzyme ([5]; FIG. 18, no DNA): does not inhibit; inhibition of DNA-dependent ATPase of W751R mutant A2B2 ([5]; W751R enzyme 106 nM, + DNA): slow down; inhibition of DNA-dependent ATPase of wild type enzyme ([6]; FIG. 18, 0.5 and 1.0 μM): slow down; inhibition of DNA-independent ATPase of wild type enzyme ([6]; FIG. 18, no DNA): does not inhibit; concentration producing a weak intercalative property (pBR322 DNA): 50 µM; germination of A. thaliana ecotype Columbia seeds [7]: growth is inhibited immediately after germination |
| CC(NC(=O)CNC(=O)CNC(=O)c1ccc(CNC(=O)C(C)NC(=O)CNC(=O)C(N)CCC(N)=O)[nH]1)C(=O)O (stereo not drawn) [Peptide 1] (H-QGA[X1]GGA-OH; configuration not given here) | exquisitely sensitive | inhibited | exquisitely sensitive | inactive | < 20 µM | 68 µM | < 10 µM | – | – | – | – | – | Topo I Wheatgerm IC50 [8]: inhibited; times more soluble than MccB17 (Solubility): at least 20 times; solubility (Solubility; water with 2% DMSO): 1000 µM (≈ 582 µg/mL); IC50 [10, 13]: 68 µM; IC50 ([10]; inhibition of supercoiling IC50, [A2B2] 13.2 nM, incubated up to 4 h): < 75 µM; IC50 [6]: 37 µM; ATPase % inhibition at saturation [6]: 15%; IC50 (DNA gyrase W751R A2B2): > 200 µM |
| C[C@H](NC(=O)CNC(=O)CNC(=O)c1coc(CNC(=O)[C@H](C)NC(=O)CNC(=O)[C@@H](N)CCC(N)=O)n1)C(=O)O [Peptide 4] (H-QGA[X3]GGA-OH) | – | – | – | – | 225 µM | – | > 300 µM | > 75 µM | > 75 µM | < 50 µM | > 300 µM | 400 µM | IC50 cleavage (DNA gyrase [9]): No; IC50 (E. coli Topoisomerase IV [2]): 175 µM |
| CC(NC(=O)CNC(=O)CNC(=O)c1coc(CNC(=O)C(C)NC(=O)CNC(=O)C(N)CCC(N)=O)n1)C(=O)O (stereo not drawn) [Peptide 4] (H-QGA[X3]GGA-OH; configuration not given here) | – | – | – | inactive | 225 µM | – | – | – | – | – | – | – | Supercoiling (IC50 μM) MG 1655 A2B2 ([10]; Table 4): Slow |
| CC(C)(C)OC(=O)NCc1nc(C(=O)O)cs1 [Peptide 5] | – | – | – | – | 15 µM | – | > 75 µM | ~75 µM | ~15 µM | < 5 µM | 40 µM | 75 µM | IC50 (E. coli Topoisomerase IV [2]): 20 µM |
| C[C@H](NC(=O)CNC(=O)CNC(=O)c1csc(CNC(=O)[C@H](C)NC(=O)CNC(=O)[C@@H](N)CCC(N)=O)n1)C(=O)O [Peptide 5] (H-QGA[GlyΨ(Thz)]GGA-OH) | – | – | – | – | 7 µM | 40 µM | – | ~75 µM | ~15 µM | < 2.5 µM | 25 µM | 25 µM | IC50 cleavage (DNA gyrase [9]): No |
| CC(NC(=O)CNC(=O)CNC(=O)c1csc(CNC(=O)C(C)NC(=O)CNC(=O)C(N)CCC(N)=O)n1)C(=O)O (stereo not drawn) [Peptide 5] (H-QGA[GlyΨ(Thz)]GGA-OH; configuration not given here) | exquisitely sensitive | inhibited | exquisitely sensitive | inactive | < 20 µM | 15 µM | < 10 µM | – | – | – | – | – | Topo I Wheatgerm IC50 [8]: inhibited; IC50 [10, 13]: 15 µM; IC50 [6]: 15 µM; ATPase % inhibition at saturation [6]: 40% |

Source: patent publication US20080234132A1, “Microcin B17 Analogs And Methods For Their Preparation And Use” (priority 2004, published 2008)
